# From patent US9433621B2, “Substituted pyridine and pyrimidine derivatives and their use in treating viral infections” (Merck Sharp & Dohme Corp., priority 2010, dated 2016)
# Test system: HCV replicon
# Assay: Cell-Based HCV Replicon Assay
# Conditions: Hepatitis C virus, 72 h; Table IV; replicon cells, day 3, real time PCR; EC90 = concentration for ΔCT=3.2 over baseline; read-out: EC90
# Method: Cell-Based HCV Replicon Assay
# To measure cell-based anti-HCV activity of the compounds of the present invention, replicon cells were seeded at 5000 cells/well in 96-well collagen I-coated Nunc plates in the presence of the compound of the invention. Various concentrations of a compound of the invention, typically in 10 serial 2-fold dilutions, were added to the assay mixture, the starting concentration of the compound ranging from 25 μM to 1 μM. The final concentration of DMSO was 0.5%, fetal bovine serum was 10%, in the assay media. Cells were harvested on day 3 by the addition of 1× cell lysis buffer (Ambion cat #8721). The replicon RNA level was measured using real time PCR (Taqman assay). The amplicon was located in 5B. The PCR primers were: 5B.2F, ATGGACAGGCGCCCTGA; 5B.2R, […]; the probe sequence was FAM-labeled CACGCCATGCGCTGCGG. GAPDH RNA was used as endogenous control and was amplified in the same reaction as NS5B (multiplex PCR) using primers and VIC-labeled probe recommended by the manufacturer (PE Applied Biosystem). The real-time RT-PCR reactions were run on ABI PRISM® 7900HT Sequence Detection System using the following program: 48′C for 30 min, 95′C for 10 min, 40 cycles of 95′C for 15 sec, 60′C for 1 min. The ΔCT values (CT5B-CTGAPDH) were plotted against the concentration of test compound and fitted to the sigmoid dose-response model using Graph Pad PRISM® software. EC50 was defined as the concentration of inhibitor necessary to achieve ΔCT=1 over the projected baseline; EC90 the concentration necessary to achieve ΔCT=3.2 over the baseline. Alternatively, to quantitate the absolute amount of replicon RNA, a standard curve was established by including serially diluted T7 transcripts of replicon RNA in the Taqman assay. All Taqman reagents were from PE Applied Biosystems. Such an assay procedure was described in detail in e.g. Malcolm et al., Antimicrobial Agents and Chemotherapy 50: 1013-1020 (2006).
# HCV Replicon assay data for compounds of the invention that were tested were obtained using the above method.
row,Compound,EC90
1,CCOc1cc2cc(-c3c(C)nc(NCC4CC4)nc3N[C@@H]3C[C@H](C(C)(C)O)[C@@H](O)[C@H]3O)oc2c(C)n1 [Example 2511],130 nM
2,CO[C@H](C)CNc1nc(C)c(-c2nc3c(C)nccc3s2)c(N[C@@H]2C[C@H](C(C)(C)O)[C@@H](O)[C@H]2O)n1 [Example 3030],104 nM
3,CO[C@@H](C)CNc1nc(C)c(-c2nc3c(C)nccc3s2)c(N[C@@H]2C[C@H](C(C)(C)O)[C@@H](O)[C@H]2O)n1 [Example 3031],104 nM
4,Cc1nc(NCC2CC2)nc(N[C@@H]2C[C@H](C(F)F)[C@@H](O)[C@H]2O)c1-c1nc2c(C)nccc2s1 [Example 3036],44 nM
5,Cc1nc(NCC2CC2)nc(N[C@@H]2C[C@H](C(C)(F)F)[C@@H](O)[C@H]2O)c1-c1nc2c(C3CC3)nccc2s1 [Example 3056],7 nM
6,COC[C@@H](C)Nc1nc(C)c(-c2nc3c(C)nccc3s2)c(N[C@@H]2C[C@H](C(C)(C)O)[C@@H](O)[C@H]2O)n1 [Example 3137],118 nM
7,CCC(O)(CC)[C@H]1C[C@@H](Nc2nc(NCC3CC3)nc(C)c2-c2nc3c(C)nccc3s2)[C@H](O)[C@@H]1O [Example 3182],68 nM
8,Cc1nc(NCc2c(F)cc(F)cc2F)nc(N[C@@H]2C[C@H](C(C)(C)O)[C@@H](O)[C@H]2O)c1-c1nc2c(C)nccc2s1 [Example 3188],21 nM
9,Cc1nc(NCC2CC(F)(F)C2)nc(N[C@@H]2C[C@H](C(C)(C)O)[C@@H](O)[C@H]2O)c1-c1nc2c(C)nccc2s1 [Example 3239],10 nM
10,Cc1cc2sc(-c3c(C)nc(NCc4c(F)cc(F)cc4F)nc3N[C@@H]3C[C@H](CO)[C@@H](O)[C@H]3O)nc2c(C)n1 [Example 3438],11 nM
11,Cc1nc(NC2CCC2)nc(N[C@@H]2C[C@H](CS(C)(=O)=O)[C@@H](O)[C@H]2O)c1-c1nc2c(C3CC3)nccc2s1 [Example 3513],54 nM
12,Cc1nc(NCc2c(F)cccc2F)nc(N[C@@H]2C[C@H](CS(C)(=O)=O)[C@@H](O)[C@H]2O)c1-c1nc2c(C3CC3)nccc2s1 [Example 3538],7 nM
13,Cc1nc(NCC2CC2)nc(N[C@@H]2C[C@H](CC(C)(C)O)[C@@H](O)[C@H]2O)c1-c1nc2c(C)nccc2s1 [Example 3552],24 nM
14,Cc1nc(N[C@H](C)C2CC2)nc(N[C@@H]2C[C@H](CCO)[C@@H](O)[C@H]2O)c1-c1nc2c(C)nccc2s1 [Example 3561],23 nM
15,Cc1nc(NCc2c(F)cc(F)cc2F)nc(N[C@@H]2C[C@H](CS(C)(=O)=O)[C@@H](O)[C@H]2O)c1-c1nc2c(C3CC3)nccc2s1 [Example 3563],3 nM
16,Cc1nc(NCc2c(F)cccc2F)nc(N[C@@H]2C[C@H](CC#N)[C@@H](O)[C@H]2O)c1-c1nc2c(C3CC3)nccc2s1 [Example 3569],16 nM
17,Cc1nc(NCC2CC2)nc(N[C@@H]2C[C@H](CS(=O)(=O)c3ccncc3)[C@@H](O)[C@H]2O)c1-c1nc2c(C)nccc2s1 [Example 3580],12 nM
18,CCOCCNc1nc(C)c(-c2nc3c(C4CC4)nccc3s2)c(N[C@@H]2C[C@H](CS(=O)(=O)CC)[C@@H](O)[C@H]2O)n1 [Example 3721],24 nM
19,Cc1nc(NCC2CC2)nc(N[C@@H]2C[C@H](CS(=O)(=O)c3ccccc3)[C@@H](O)[C@H]2O)c1-c1nc2c(C3CC3)nccc2s1 [Example 3744],44 nM
20,Cc1nc(NCc2c(F)cccc2F)nc(N[C@@H]2C[C@H](CS(=O)(=O)c3cc(F)cc(F)c3)[C@@H](O)[C@H]2O)c1-c1nc2c(C)nccc2s1 [Example 3754],15 nM
21,CCNC(=O)C(O)[C@H]1C[C@@H](Nc2nc(N[C@H](C)COCC)nc(C)c2-c2nc3c(C)nccc3s2)[C@H](O)[C@@H]1O (some centres unmarked) [Example 4025],8 nM
22,Cc1nc(NCC(F)(F)C(F)(F)F)nc(N[C@@H]2C[C@H](C(C)(C)O)[C@@H](O)[C@H]2O)c1-c1nc2c(C)nccc2s1 [Example 4346],43 nM
23,Cc1nc(N[C@H](C)c2ccc(OC(F)(F)F)cc2)nc(N[C@@H]2C[C@H](CO)[C@@H](O)[C@H]2O)c1-c1nc2c(N)nccc2s1 [Example 4413],121 nM
